Measured values from patent publication US11806359B2 (priority 2020, dated 2023).
In brackets after ≈: the same amount, converted by molar mass.

Key:
HTLV-1 = HTLV-1 replication and p19Gag particle release from SLB1 cells, Anti-HTLV-1 p19Gag ELISA; type: cell-based, human T-cell leukemia virus type-1; details: SLB1 cells, 10, 50, 100 μg/ml, 72 hrs
Marburgvirus (MARV/Ci67) = type: cell-based; details: based on the oleandrin content; final concentration of compositions 20 microg/mL
SARS-CoV-2 [1] = assay: microbe, parasite or virus in culture; type: cell-based
[2] = tested on: HTLV-1+ SLB1 lymphoma T-cell-line; assay: Cytotoxicity/apoptosis in HTLV-1+ SLB1 cells, Annexin V-FITC/PI staining; type: cell-based; details: 72 hrs
Experimental: SLB1 T-cells were treated with increasing concentrations (10, 50, and 100 μg/ml) of oleandrin or a N. oleander extract for 72 hrs as described herein. As a negative control, the cells were also treated with increasing amounts (1.5, 7.5, and 15 μg) of the vehicle solution which corresponded to the volumes used in the drug-treated cultures. Cyclophosphamide (50 μM; Sigma-Aldrich)-treated cells were included as a positive control for apoptosis. Then, the samples were washed and stained with Annexin V-FITC and propidium iodide (PI) and analyzed by confocal fluorescence-microscopy. The relative percentages of Annexin V-FITC and/or PI-positive cells were quantified by fluorescence-microscopy and counting triplicate visual fields using a 20× objective lens.
To assess the relative cytotoxicity of the oleandrin compound, extract of N. oleander, or the Vehicle control in treated cell cultures, 2×10^4 HTLV-1+ SLB1 lymphoma T-cells or activated/cultured huPBMCs were plated in 300 μl of complete medium, supplemented with antibiotics, and maintained at 37.0 under 10% CO2 in a humidified incubator. The cultures were treated with either increasing concentrations (10, 50, and 100 μg/ml) of oleandrin or N. oleander extract, or the Vehicle control ([…]) and incubated for 72 hrs. […] The total numbers of cells per field were quantified by microscopy using a DIC phase-contrast filter.

SARS-CoV-2 [3] = assay: SARS-CoV-2 viral titer and infectivity of progeny virions in Vero cells (Example 28); type: cell-based; details: for reduction in virus load: oleandrin pretreatment
Experimental: Further proof of the efficacy of oleandrin (oleandrin-containing composition) against coronavirus, e.g. SARS-CoV-2 (COVID-19), was obtained through in vitro evaluation according to Example 28, wherein Vero cells were pretreated with oleandrin and then infected with SARS-CoV-2. Following infection of the cells, the extracellular virus and oleandrin was washed away, and the infected cells were then treated with oleandrin (FIG. 23A: 1 microg/mL in 0.1% v/v aqueous DMSO; FIG. 23C: 0.1 microg/mL in 0.01% v/v aqueous DMSO) or just aqueous DMSO as control vehicle (FIG. 23B: 0.1% v/v aqueous DMSO; FIG. 23D: 0.01% v/v aqueous DMSO). […] The results further indicate that oleandrin inhibits infectivity of progeny virus by a) about 1 log10 without continuous drug treatment; and b) about >3 log10 with continuous drug treatments (without toxicity).
A stock solution of oleandrin in methanol (10 mg oleandrin/mL) was prepared. The stock solution was used to prepare incubation media containing DMSO (0.1% or 0.01% v/v in aqueous culture medium RPMI 1640 and oleandrin (20 microg/mL, 10 microg/mL, 1.0 microg/mL, or 0.1 microg/mL). The incubation solutions are as follows.
Uninfected Vero cells (target initial cell count 1×10^6) in culture were incubated in each of the indicated incubation media in vials for 30 min at 37° C. A viral inoculate of SARS-CoV-2 was then added to each vial to achieve a target initial viral titer (about PFU/mL 1×10^4). The target MOI (multiplicity of infection) of about 0.1. The solutions were incubated for an additional 2 h at 37° C. to achieve infection of the Vero cells. The infected Vero cells were then washed with control vehicle to remove extracellular virus and oleandrin. New aliquots of each incubation medium were added to each respective vial of infected Vero cells. Those receiving oleandrin in the second aliquot were denoted as “+ treatment Post-infection”, and those not receiving oleandrin in the second aliquot were denoted as “− treatment Post-infection” (FIGS. 23A-23D). The viral titer for each vial was determined at about 24 h and about 48 h after infection.
The data acquired included quantity of virus produced, infectivity of progeny virus, and relative safety (nontoxicity) of oleandrin in infected and uninfected cells.

For `CO[C@H]1C[C@H](O[C@H]2CC[C@@]3(C)[C@H](CC[C@@H]4[C@@H]3CC[C@]3(C)[C@@H](C5=CC(=O)OC5)[C@@H](OC(C)=O)C[C@]43O)C2)O[C@@H](C)[C@@H]1O` [oleandrin], the “HTLV-1 replication or release of p19Gag-containing virus particles” value (HTLV-1) was “does not significantly inhibit”, the “efficacy against Marburgvirus” value (Marburgvirus (MARV/Ci67)) was “efficacious” and the “concentrations with substantial antiviral activity” value (SARS-CoV-2 [1]) was “above 0.01 microg/mL”. For the same compound, the effect on titer (SARS-CoV-2 [1]) was “significant reduction in titer”, the “effect on titer compared to DMSO control” value (SARS-CoV-2 [1]) was “no significant effect” and the viral titer (SARS-CoV-2 [1]) was “substantial reduction in viral titer”. For the same compound, the “viral titer at the two higher doses” value (SARS-CoV-2 [1]) was “essentially to or below the limit of detection”, the EC50 (SARS-CoV-2 [1]; Severe acute respiratory syndrome coronavirus 2, 24 h) was 12 ng/mL (≈ 0.0208 µM) and the EC50 (SARS-CoV-2 [1]; Severe acute respiratory syndrome coronavirus 2, 48 h) was 7.07 ng/mL (≈ 0.0123 µM). For the same compound, the “cytotoxicity/apoptosis at the lowest concentration” value ([2]; 10 μg/ml) was “did not induce significant cytotoxicity/apoptosis”, the “cytotoxicity compared with the Vehicle control” value ([2]; treated HTLV-1+ SLB1 cells) was “not significantly higher than the Vehicle control” and the “reduction of initial viral infection” value (SARS-CoV-2 [3]; just 30 min preincubation of Vero cells) was “only slightly effective”. For the same compound, the “reduction in virus load” value (SARS-CoV-2 [3]; 24-h time) was 1368 fold, the “reduction in virus load” value (SARS-CoV-2 [3]; 48-h time point) was 369 fold and the “inhibition of infectivity of progeny virus” value (SARS-CoV-2 [3]; with continuous drug treatments (without toxicity)) was > 3 log10. For the same compound, the “inhibition of infectivity of progeny virus” value (SARS-CoV-2 [3]; without continuous drug treatment) was “about 1 log10”.
